From patent US20080226571A1, “Compositions and methods to effect enhanced photoprotection against UV A and UV B induced damage of human skin” (priority 2007, published 2008)
Marks after values point to notes of the source that are not given here.

Tests used:
Assay type in all cases: cell-based
[1] = test system: HaCaT human keratinocyte cell line; test: UV A protection of HaCaT keratinocytes, topical application model (Protocol I, SRB viability); conditions: for % UV A protection: Topical model; for UV protection UV A: summary in words, Table I, HaCaT, topical and oral protocols not separated
Procedure: (§1) The protocol is based on evaluating the reduction in photo damage caused by UV A and UV B in HaCaT human keratinocyte cell line. The cell viability is measured by Sulphorhodamine B assay (SRB assay) after exposure to UV rays. The percentage of UV protection is calculated based on the number of viable cells in the control (untreated) and test HaCaT human keratinocytes (treated with the labdane-diterpenoids based composition of the present invention) after UV exposure. The photoprotection assays to screen compounds for their UV protection efficacy during topical and oral applications as discussed in J Am Acad Dermatol 2003; 49: 458-472 is adopted as a reference.
(§2) Protocol I—Screening compounds suited for topical applications for UV protection efficacy 0.5×10^4 HaCaT human keratinocyte cells/well are counted and seeded into a 96 well micro titer plates. The cells are incubated at 37° C. in 5% CO2 for 24 hours. The growth medium is then removed and replaced with medium containing varying concentrations of the labdane-diterpenoids based composition of the present invention. The cells are immediately exposed to ultraviolet irradiation and further incubated for 72 hours. After 72 hours, the cell viability is determined by SRB assay.
(§3) The UV A exposure in both the protocols involves three UV A bulbs providing 108 watts of power. The plates are exposed for 1 hour at a distance of 5 cm from the source of light. The UV B exposure in both the protocols involves three UV B bulbs which provide 100 μwatt/cm^2 or 0.14 J/cm^2 irradiation dose. The plates are exposed for 7 minutes at a distance of 30 cm from the source of light.

[2] = test system: HaCaT human keratinocyte cell line; test: UV A protection of HaCaT keratinocytes, oral application model (Protocol II)
Procedure: as §1
(§4) Protocol II—Screening compounds suited for oral applications for UV protection efficacy 0.5×10^4 HaCaT human keratinocyte cells/well are counted and seeded into a 96 well micro titer plates. The cells are incubated at 37° C. in 5% CO2 for 24 hours. The growth medium is then removed and replaced with medium containing varying concentrations of the labdane-diterpenoids based composition of the present invention. The cells are then incubated for 24 hours to be followed by UV treatment. The UV treated cells are further incubated for 48 hours after which, cell viability is determined using the SRB or neutral red uptake assays.
as §3

[3] = test system: HaCaT human keratinocyte cell line; test: UV B protection of HaCaT keratinocytes, topical application model (Protocol I, SRB viability); conditions: for % UV B protection as compared to control: Table B, Topical model; for UV protection UV B: summary in words, Table I, HaCaT, topical and oral protocols not separated
Procedure: as §1, §2, §3

[4] = test system: HaCaT human keratinocyte cell line; test: UV B protection of HaCaT keratinocytes, oral application model (Protocol II)
Procedure: as §1, §4, §3

[5] = test system: B16F1 mouse melanoma cells; test: Intracellular melanin enhancement; conditions: for Melanin enhancement: summary in words, Table I
Procedure: B16F1 mouse melanoma cells are treated with varying concentrations of actives I, II and III and other optional actives or combinations thereof at a time interval of 3 days for nine consecutive days. The intracellular melanin in both the controls and test B16F1 mouse melanoma cells is extracted by 1 N NaOH and subjected to a heat treatment at 100° C. The extracted melanin is estimated at 405 nm in a Fluostar Optima Microplate Reader.

cells of the skin = test: Relative cytotoxicity (summary Table I); conditions: summary in words

SMILES	% UV A protection ([1]; 0.25 μg/ml) [%]	% UV A protection ([1]; 0.5 μg/ml) [%]	% UV A protection ([1]; 1 μg/ml)	% UV A protection ([1]; 2 μg/ml)	% UV A protection ([1]; 3 μg/ml)	% UV A protection ([1]; 5 μg/ml)	% UV A protection ([1]; 12 μg/ml)	UV protection UV A [1]	% UV A protection ([2]; 0.25 μg/ml)	% UV A protection ([2]; 0.5 μg/ml)	% UV A protection ([2]; 1 μg/ml)	% UV A protection ([2]; 2 μg/ml)	% UV A protection ([2]; 3 μg/ml)	% UV A protection ([2]; 5 μg/ml)	% UV A protection ([2]; 12 μg/ml)	% UV B protection as compared to control ([3]; 0.25 μg/ml) [%]	% UV B protection as compared to control ([3]; 0.5 μg/ml) [%]	% UV B protection as compared to control ([3]; 1 μg/ml)	% UV B protection as compared to control ([3]; 2 μg/ml)	% UV B protection as compared to control ([3]; 3 μg/ml)	further results
C=C[C@@]1(C)CC(=O)[C@]2(O)[C@@]3(C)[C@@H](O)CCC(C)(C)[C@@H]3[C@H](O)[C@H](O)[C@@]2(C)O1 [Active I, 8,13-epoxy-1α,6β,7β,9α-tetrahydroxylabd-14-en-11-one]	14	16	19%	31* %	42* %	49* %	59* %	Significant	24* %	29* %	58* %	82* %	98* %	97* %	98* %	10	13	20* %	35* %	45* %	% UV B protection as compared to control ([3]; 5 μg/ml): 50* %; % UV B protection as compared to control ([3]; 12 μg/ml): 55* %; UV protection UV B [3]: Significant; % UV B protection ([4]; 0.25 μg/ml): 15* %; % UV B protection ([4]; 0.5 μg/ml): 35* %; % UV B protection ([4]; 1 μg/ml): 65* %; % UV B protection ([4]; 2 μg/ml): 80* %; % UV B protection ([4]; 3 μg/ml): 91* %; % UV B protection ([4]; 5 μg/ml): 97* %; % UV B protection ([4]; 12 μg/ml): 98* %; No. of folds of Melanin Enhancement compared to control ([5]; 0.25 μg/ml): 1.1 folds; No. of folds of Melanin Enhancement compared to control ([5]; 0.5 μg/ml): 1.25 folds; No. of folds of Melanin Enhancement compared to control ([5]; 1 μg/ml): 1.9* folds; No. of folds of Melanin Enhancement compared to control ([5]; 2 μg/ml): 2.8* folds; No. of folds of Melanin Enhancement compared to control ([5]; 3 μg/ml): 3.2* folds; No. of folds of Melanin Enhancement compared to control ([5]; 5 μg/ml): 3.8* folds; No. of folds of Melanin Enhancement compared to control ([5]; 12 μg/ml): 4.2* folds; melanin enhancement activity, comparison in words ([5]; Tables C and E): more than active II or active III; dose levels still tolerated and effective, relative to the maximum tolerated dose levels of active III ([5]; mouse): 2.4 times; Melanin enhancement [5]: Significant
C=C[C@@]1(C)CC(=O)[C@]2(O)[C@@]3(C)[C@@H](O)CCC(C)(C)[C@@H]3[C@H](O)[C@H](OC(C)=O)[C@@]2(C)O1 [Active III, 7β-acetoxy-8,13-epoxy-1α,6β,9α-trihydroxylabd-14-en-11-one]	5	10	15* %	20* %	29* %	toxic	toxic	Moderate	10%	15* %	20* %	26* %	38* %	toxic	toxic	0	2	5%	5%	5%	% UV B protection as compared to control ([3]; 5 μg/ml): toxic; % UV B protection as compared to control ([3]; 12 μg/ml): toxic; UV protection UV B [3]: Nil; % UV B protection ([4]; 0.25 μg/ml): 0%; % UV B protection ([4]; 0.5 μg/ml): 2%; % UV B protection ([4]; 1 μg/ml): 4%; % UV B protection ([4]; 2 μg/ml): 4%; % UV B protection ([4]; 3 μg/ml): 5%; % UV B protection ([4]; 5 μg/ml): toxic; % UV B protection ([4]; 12 μg/ml): toxic; No. of folds of Melanin Enhancement compared to control ([5]; 0.25 μg/ml): 1 folds; No. of folds of Melanin Enhancement compared to control ([5]; 0.5 μg/ml): 1.1 folds; No. of folds of Melanin Enhancement compared to control ([5]; 1 μg/ml): 1.5* folds; No. of folds of Melanin Enhancement compared to control ([5]; 2 μg/ml): 2* folds; No. of folds of Melanin Enhancement compared to control ([5]; 3 μg/ml): 2.8* folds; No. of folds of Melanin Enhancement compared to control ([5]; 5 μg/ml): toxic; No. of folds of Melanin Enhancement compared to control ([5]; 12 μg/ml): toxic; Melanin enhancement [5]: Moderate; Cytotoxicity (cells of the skin): Cytotoxic
